# Reference: article PMC7892554 (Scientific Reports, 2021)
# “Also recorded” adds a separate entry of the source. Like-named read-outs stand apart in the source and are kept apart here. Positions of bridges follow the written chain, without caps; N, C: chain ends. Residues, ends and D or L forms follow the SMILES beside them.
# Assays:
# [1] = in vivo; cited from earlier work
# M. smegmatis = type: cell-based, Mycobacterium smegmatis mc^2155
# M. tuberculosis H37Rv = system: M. tuberculosis H37Rv; set-up: species or system BALB/c mice; conditions: mouse, in vivo
# [2] = system: M. tuberculosis H37Rv infected mice; type: in vivo, BALB/c mice
# [3] = mouse, in vivo, iv, 33 mg/kg
# in vivo = conditions: male, BALB/c, mouse, iv, 33 mg/kg
compound,measurement,setting,value
plectasin,Terminal serum elimination half-life,[1],51 min
"CC[C@H](C)[C@@H]1NC(=O)[C@H](CO)NC(=O)[C@H](CCCCN)NC(=O)[C@@H]2CSSC[C@@H](C(=O)N[C@@H](Cc3ccc(O)cc3)C(=O)O)NC(=O)[C@H](CCCCN)NC(=O)[C@@H]3CSSC[C@H](NC(=O)[C@H](CCC(N)=O)NC(=O)[C@H]([C@@H](C)CC)NC(=O)[C@H](CC(=O)O)NC(=O)[C@H](CC(=O)O)NC(=O)[C@H](CCC(=O)O)NC(=O)[C@H](CO)NC(=O)[C@H](Cc4c[nH]c5ccccc45)NC(=O)[C@@H]4CCCN4C(=O)CNC(=O)[C@H](CC(N)=O)NC(=O)[C@@H](NC(=O)CNC(=O)[C@H](Cc4ccccc4)NC(=O)CN)CSSC[C@H](NC(=O)[C@H](Cc4ccc(O)cc4)NC(=O)CNC(=O)CNC(=O)[C@H](CCCCN)NC(=O)[C@H](Cc4ccc(O)cc4)NC(=O)CNC(=O)[C@H](CCCCN)NC1=O)C(=O)N[C@@H](C)C(=O)N[C@@H](CCCNC(=N)N)C(=O)NCC(=O)NCC(=O)N[C@@H](Cc1ccccc1)C(=O)N[C@@H](C(C)C)C(=O)N3)C(=O)N[C@@H](Cc1c[nH]cn1)C(=O)N[C@@H](CC(N)=O)C(=O)N[C@@H](Cc1c[nH]cn1)C(=O)N2 [NZX] (H-GFGCNGPWSEDDIQCHNHCKSIKGYKGGYCARGGFVCKCY-OH; disulfide 4-30, 15-37, 19-39)",Frequency at which resistant mutants emerge,M. smegmatis,< 10^–9
same,Resistant mutants detected,M. smegmatis,did not detect any resistant mutants
same,Bacterial (CFU) reduction compared to the untreated control,M. tuberculosis H37Rv,75%
same,"Lung tissue destruction / inflammatory score (perivascular, peribronchiolar and alveolar infiltration)","[2]; mouse, in vivo",decreased tissue destruction
same,NZX in the circulation after 240 min,[3],not detected
same,Cmax,in vivo,61 µg/mL
same,half-life,in vivo,42 min
NNC(=O)c1ccncc1 [isoniazid],Bacterial (CFU) reduction compared to the untreated control,M. tuberculosis H37Rv,92%
same,"Lung tissue destruction / inflammatory score (perivascular, peribronchiolar and alveolar infiltration)",[2]; n = 4–5,decreased tissue destruction; also recorded: preserved alveolar structure best
CC[C@@H](CO)NCCN[C@@H](CC)CO [ethambutol],Bacterial (CFU) reduction compared to the untreated control,M. tuberculosis H37Rv,79%
same,"Lung tissue destruction / inflammatory score (perivascular, peribronchiolar and alveolar infiltration)",[2]; n = 4–5,more severe tissue destruction
